Here are results for eleven compounds from ChEMBL document CHEMBL1149328, “Estrogen receptor ligands. II. Discovery of benzoxathiins as potent, selective estrogen receptor alpha modulators” (J Med Chem, 2004).

In assay [1] the target is T1, Estrogen receptor beta (Homo sapiens, UniProt Q92731).
Description: Binding affinity towards human recombinant Estrogen receptor beta was determined
Assay [2] addresses T2, Estrogen receptor (Homo sapiens, UniProt P03372).
T2 sequence (P03372 whole entry): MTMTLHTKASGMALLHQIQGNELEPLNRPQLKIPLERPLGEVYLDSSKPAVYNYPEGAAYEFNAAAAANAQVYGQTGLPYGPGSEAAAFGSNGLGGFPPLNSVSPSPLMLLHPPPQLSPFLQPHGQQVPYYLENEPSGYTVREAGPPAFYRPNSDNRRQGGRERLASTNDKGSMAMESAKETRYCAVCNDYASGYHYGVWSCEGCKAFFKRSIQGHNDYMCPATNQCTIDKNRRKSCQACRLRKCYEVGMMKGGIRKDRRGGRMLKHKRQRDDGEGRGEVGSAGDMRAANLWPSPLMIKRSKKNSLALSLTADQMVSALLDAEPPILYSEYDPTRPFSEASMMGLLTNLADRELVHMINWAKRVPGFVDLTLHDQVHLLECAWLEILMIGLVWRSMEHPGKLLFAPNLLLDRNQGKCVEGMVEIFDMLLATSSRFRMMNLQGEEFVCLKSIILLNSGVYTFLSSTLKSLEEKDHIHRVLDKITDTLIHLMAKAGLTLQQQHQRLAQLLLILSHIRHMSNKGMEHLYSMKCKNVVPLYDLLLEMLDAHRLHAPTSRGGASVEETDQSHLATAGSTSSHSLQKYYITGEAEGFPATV
Description: Binding affinity towards human recombinant Estrogen receptor alpha was determined

The target in assay [3] is T3, Estrogen receptor (Rattus norvegicus) (UniProt P06211+Q62986). The note with it: at 1 mg/kg.
Description: Anti-uterotrophic activity in rats after 1 mg/kg subcutaneous dose for 3 days without estradiol
Assay [4] concerns the target T3, Estrogen receptor (Rattus norvegicus). The settings on record: at 1 mg/kg. The source holds these as a separate data set.
Description: (§1) Anti-uterotrophic activity in rats after 1 mg/kg subcutaneous dose for 3 days with estradiol
Assay [5] concerns the target T2, Estrogen receptor. Briefly: In vitro binding affinity for Estrogen receptor alpha in HEK293 cells. Format: cell-based.
Assay [6] concerns the target T1, Estrogen receptor beta. Briefly: biochemical.
Description: In vitro binding affinity for Estrogen receptor beta in HEK293 cells
Assay [7] concerns the target T3, Estrogen receptor (Rattus norvegicus). The settings on record: Uterus, at 1 mg/kg.
Description: Uterotrophic activity in rats after 1 mg/kg peroral dose for 3 days without estradiol
Assay [8] has the same target. The note with it: at 1 mg/kg. This is another data set of the same source.
Description: as §1
Assay [9] has the same target. The settings on record: Uterus, at 0.3 mg/kg.
Description: Uterotrophic activity in rats after 0.3 mg/kg peroral dose for 3 days with estradiol

T1 sequence (Q92731 whole entry): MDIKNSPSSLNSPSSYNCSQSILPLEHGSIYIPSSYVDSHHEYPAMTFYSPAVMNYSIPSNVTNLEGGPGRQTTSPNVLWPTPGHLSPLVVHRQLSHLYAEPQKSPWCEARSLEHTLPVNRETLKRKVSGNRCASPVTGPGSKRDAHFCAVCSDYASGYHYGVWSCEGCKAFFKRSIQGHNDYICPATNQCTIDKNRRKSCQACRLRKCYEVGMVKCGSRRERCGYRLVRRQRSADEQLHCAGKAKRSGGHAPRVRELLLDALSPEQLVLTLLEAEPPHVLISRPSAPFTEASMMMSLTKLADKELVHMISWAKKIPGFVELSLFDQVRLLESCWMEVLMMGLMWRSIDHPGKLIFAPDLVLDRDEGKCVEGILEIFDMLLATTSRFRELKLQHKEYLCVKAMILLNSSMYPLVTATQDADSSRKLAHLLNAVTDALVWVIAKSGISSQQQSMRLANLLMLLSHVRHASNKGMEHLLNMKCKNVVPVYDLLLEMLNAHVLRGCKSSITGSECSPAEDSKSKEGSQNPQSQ

One may read the IC50 as the concentration that inhibits the measured activity by half. `Oc1ccc([C@@H]2Sc3ccccc3O[C@@H]2c2ccc(OCCN3CCCCC3)cc2)cc1`: the IC50 against Estrogen receptor beta [1] is 70 nM; on Estrogen receptor [2], 10 nM.
Taken in the same sequence, the figures for `Oc1ccc([C@@H]2Sc3ccc(O)cc3O[C@@H]2c2ccc(OCCN3CCCCC3)cc2)cc1` were 45 nM and 1.6 nM.
As a reminder, the inhibition is how much of the control response was suppressed. A low value points to a response near the control. In assay [3], `Oc1ccc([C@@H]2Sc3cc(O)ccc3O[C@H]2c2ccc(OCCN3CCCCC3)cc2)cc1` (racemic) had a Control of 5%. Also, in assay [4], the inhibition was 77%.
The compound `Oc1ccc([C@@H]2Sc3cc(O)ccc3O[C@@H]2c2ccc(OCCN3CCCCC3)cc2)cc1` (stereo in doubt; 4-L) showed an inhibition in [4] of 16%.
As to `[O-][S+]1c2cc(O)ccc2O[C@H](c2ccc(OCCN3CCCCC3)cc2)[C@@H]1c1ccc(O)cc1` (stereo partly specified), the IC50 on Estrogen receptor beta [1] and at Estrogen receptor [2] was > 100000 nM throughout.
On to `Oc1ccc(C2=C(c3ccc(OCCN4CCCCC4)cc3)Oc3ccc(O)cc3S2)cc1`, for which the IC50 at Estrogen receptor [5] turned out to be 5.1 nM; at Estrogen receptor beta [1], 5.1 nM; against Estrogen receptor [2], 1.6 nM; against Estrogen receptor beta [6] it was 159 nM. The compound further displayed a Control in assay [3] of 45%. This compound also displayed an inhibition in assay [4] of 55%.
With `Oc1ccc2c(c1)S[C@@H](c1ccccc1)[C@@H](c1ccc(OCCN3CCCCC3)cc1)O2`, the IC50 stood at 183 nM against Estrogen receptor beta [1] and 6.2 nM against Estrogen receptor [2].
Regarding `O=C1c2ccc(O)cc2O[C@H](c2ccc(OCCN3CCCCC3)cc2)[C@@H]1c1ccc(O)cc1`, the IC50 at Estrogen receptor beta [1] amounted to 2730 nM; against Estrogen receptor [2] it was 39 nM.
As for `Oc1ccc([C@H]2Sc3cc(O)ccc3O[C@H]2c2ccc(OCCN3CCCCC3)cc2)cc1`, the Control in [7] was found to be 9%. Further, the inhibition in [8] came out at 0.4%; in assay [9], 11.4%.
For the compound `O=S1(=O)c2cc(O)ccc2O[C@H](c2ccc(OCCN3CCCCC3)cc2)[C@@H]1c1ccc(O)cc1`, the concentration for half-maximal inhibition (IC50) came to 5950 nM against Estrogen receptor beta [1] and 1090 nM at Estrogen receptor [2].
In assay [3], `Oc1ccc([C@@H]2Sc3cc(O)ccc3O[C@@H]2c2ccc(OCCN3CCCCC3)cc2)cc1` (racemic) displayed a Control of 20%. The compound also gave an inhibition in assay [4] of 18%.
